{"source": "patent US20250302834A1", "about": "“N-ALKYL-2-SUBSTITUTED ATP ANALOGUES FOR USE AS ANTIBACTERIAL AGENT” (UNIVERSITÉ DE LIÈGE, priority 2022, published 2025)", "key": {"[1]": {"details": "general statement, no test described; cited from earlier work"}, "[2]": {"tested_on": "JE2 S. aureus", "assay": "Staphyloxanthin production, JE2 strain", "assay_type": "cell-based, Staphylococcus aureus", "details": "1.0 μg/ml (FIG. 4)", "protocol": "(§1) Staphylococcus aureus strains included previously characterized infective endocarditis (IE) clinical isolate (Liesenborghs L, Meyers S, Lox M, Criel M, Claes J, Peetermans M, Trenson S, Vande Velde G, Vanden Berghe P, Baatsen P, et al. Staphylococcus aureus endocarditis: distinct mechanisms of bacterial adhesion to damaged and inflamed heart valves. Eur Heart J 2019; 40:3248-3259) or JE2 (USA300 MRSA). Bacteria were grown in Tryptic soy broth (TSB, Sigma) under agitation (200 rpm) at 37° C. Prior to all experiments, a single colony from TSA plates was used to inoculate 4 mL of TSB in 15-mL polystyrene tubes and bacteria were grown overnight. Liquid cultures were then diluted 100-fold in 20 mL of fresh TSB and aliquoted in new tubes. For tetrasodium cangrelor treatment, different concentrations of the drug were added to the corresponding tubes. Tetrasodium cangrelor was dissolved in the culture medium, i.e. Tryptic soy broth which comprises proteins and nutrients for growing bacteria, more particularly: casein, soya peptone, sodium chloride, dipotassium phosphate, dextrose, water. […]\n(§2) Bacteria pellets from overnight culture were resuspended in 400 μL methanol and incubated for 30 minutes at 37° C. under gentle agitation on a table shaker. […] Pigment intensity in supernatants was analyzed by measuring the absorbance at 470 nm. […]"}, "[3]": {"tested_on": "Staphylococcus aureus IE clinical isolate", "assay": "Staphyloxanthin production, IE strain", "assay_type": "cell-based", "details": "IE strain grown with 0.5 μg/mL up to exponential phase (FIG. 3)", "protocol": "as §1, §2"}, "[4]": {"tested_on": "methicillin-resistant JE2 (USA300) Staphylococcus aureus strain", "assay": "Haemolytic activity of culture supernatant on human red blood cells, JE2 strain", "assay_type": "cell-based", "details": "JE2 (USA300) grown with 1 μg/mL up to stationary phase; supernatant on red blood cells 30 minutes", "protocol": "as §1\n(§3) Freshly drawn citrate anticoagulated blood from healthy volunteers was centrifugated for 15 minutes at 1,000×g. […] Haemolytic activity was determined in supernatants by measuring the absorbance at 570 nm in a spectrophotometer. […]"}, "[5]": {"tested_on": "JE2 S. aureus", "assay": "Bacterial adhesion to fibrinogen", "assay_type": "cell-based, Staphylococcus aureus", "details": "JE2 grown with 1 μg/ml (FIG. 6)", "protocol": "(§4) Staphylococcus aureus JE2 (USA300 MRSA) in exponential growth phase, non-treated or treated with cangrelor at 1 μg/ml were stained with 30 μg/ml 5(6)-Carboxyfluorescein N-hydroxysuccinimide ester (Sigma-Aldrich) in phosphate-buffered saline (PBS) for 30 minutes at room temperature on a shaker. After incubation, bacteria were centrifuged for 5 minutes at 14,000×g and the supernatant was removed. Next, a washing step was performed by resuspending the bacteria in PBS and removing PBS after centrifugation (5 minutes at 14,000×g). The bacterial pellet was then resuspended in 100 μl of 6% bovine serum albumin (BSA). The stained bacteria were kept on ice until further use in the Von Willebrand factor (VWF) adhesion assay and fibrinogen (Fg) adhesion assay.\n96-well plates (cellstar, greiner) were coated with human plasma fibrinogen (Fg, Merck) for 24 hours at room temperature, followed by a washing step with PBS. Next, a blocking step with 2% BSA for 1 hour was done followed by a wash step with PBS. Labelled bacteria in exponential phase were then diluted in TSB medium to obtain 10^9 CFU/ml of labelled bacteria. […] Bacterial adhesion was then quantified using a spectrophotometer (multi-mode microplate reader FilterMax F5, molecular devices) Ex.:485 nm and em.:535 nm, a surface scan of the wells was performed. […]"}, "[6]": {"tested_on": "JE2 S. aureus", "assay": "Bacterial adhesion to Von Willebrand factor under flow", "assay_type": "cell-based, Staphylococcus aureus", "details": "JE2 grown with 1 μg/ml; shear rate 1000 s^-1 for 10 minutes (FIG. 5)", "protocol": "as §4, with “assay. […]” for “assay.”\nAfter perfusion, the coverslip was removed from the system and washed with PBS, followed by a fixation step with 4% paraformaldehyde (PFA, miliporefore, Merck) for 10 minutes. […] Confocal microscopy was performed at a 40× magnification and fluorescence intensity was measured with QuPath software (Bankhead, P. et al. QuPath: Open source software for digital pathology image analysis. Sci. Rep. 7, 1-7 (2017)). A quantification of bacteria adhesion to VWF was determined by determining the percentage of positive pixels, corresponding to the fluorescent signal and bacterial adhesion."}, "[7]": {"tested_on": "JE2 S. aureus", "assay": "Bacterial growth curve", "assay_type": "cell-based, Staphylococcus aureus", "details": "1 μg/ml, 20 μg/ml and 40 μg/ml, 7 hours, OD 595 nm (FIG. 7)", "protocol": "(§5) A bacterial growth curve and metabolic activity profile was obtained of exponential phase JE2 bacteria following treatment with different concentrations of cangrelor 1 μg/ml, 20 μg/ml and 40 μg/ml. The bacterial growth curve was obtained via a kinetic reading using a spectrophotometer, reading every 10 minutes for 7 hours at an optical density of 595 nm with continuous shaking. The metabolic activity profile was obtained using a Calscreener™ (Symcel), which measures the metabolic response over time (15 hours) in presence of the different concentrations of cangrelor. […] While cangrelor cannot inhibit the bacterial growth of JE2, it can inhibit virulence factors production by this strain upon treatment using a clinically relevant dose of 1 μg/ml."}, "[8]": {"tested_on": "JE2 S. aureus", "assay": "Bacterial metabolic activity (Calscreener)", "assay_type": "cell-based, Staphylococcus aureus", "details": "1 μg/ml, 20 μg/ml and 40 μg/ml, 15 hours (FIG. 8)", "protocol": "as §5"}, "[9]": {"tested_on": "Staphylococcus aureus IE clinical isolate", "assay": "Haemolytic activity of culture supernatant on human red blood cells, IE strain", "assay_type": "cell-based", "details": "IE strain grown with 0.5 μg/mL up to exponential phase; supernatant on red blood cells 30 minutes", "protocol": "as §1, §3"}, "[10]": {"details": "intravenous bolus (30 μg/kg) followed by 4-μg/kg/min infusion; cited from earlier work"}}}
{"smiles": "CCCSc1nc(N[C@@H]2C[C@H]2c2ccc(F)c(F)c2)c2nnn([C@@H]3C[C@H](OCCO)[C@@H](O)[C@H]3O)c2n1", "note": "[Ticagrelor]", "values": [{"measurement": "solubility in an aqueous environment or medium", "setting": "[1]", "value": "generally not soluble"}]}
{"smiles": "CSCCNc1nc(SCCC(F)(F)F)nc2c1ncn2[C@@H]1O[C@H](COP(=O)(O)OP(=O)(O)C(Cl)(Cl)P(=O)(O)O)[C@@H](O)[C@H]1O", "note": "[cangrelor]", "values": [{"measurement": "loss of bacteria staphyloxanthin production as compared to vehicle control (set to 100%)", "setting": "[2]", "value": 90, "unit": "%"}, {"measurement": "loss of bacteria staphyloxanthin production as compared to vehicle control (set to 100%)", "setting": "[3]", "value": 90, "unit": "%"}, {"measurement": "loss of supernatant haemolytic activity as compared to vehicle control (set to 100%)", "setting": "[4]", "value": "complete loss"}, {"measurement": "bacterial adhesion to fibrinogen as compared to vehicle control", "setting": "[5]", "value": "reduction"}, {"measurement": "bacterial adhesion to Von Willebrand factor under flow as compared to vehicle control", "setting": "[6]", "value": "reduction"}, {"measurement": "bacterial growth (AUC of growth curve) as compared to vehicle control", "setting": "[7]", "value": "could not affect"}, {"measurement": "bacterial metabolic activity as compared to vehicle control", "setting": "[8]", "value": "could not affect"}]}
{"smiles": "CSCCNc1nc(SCCC(F)(F)F)nc2c1ncn2[C@@H]1O[C@H](COP(=O)(O)OP(=O)(O)C(Cl)(Cl)P(=O)(O)O)C(O)C1O", "note": "(stereo partly shown) [tetrasodium cangrelor]", "values": [{"measurement": "loss of supernatant haemolytic activity as compared to vehicle control (set to 100%)", "setting": "[9]", "value": 90, "unit": "%"}, {"measurement": "steady state concentration of the drug reached in patient", "setting": "[10]", "value": 0.5, "unit": "µg/mL"}]}
